Measured values: paper PMC12723449, “From Pharmacophore to Warhead: NAD^+‐Targeting Triazoles as Mechanism‐Based Sirtuin Inhibitors” (Angewandte Chemie (International Ed. in English), 2025)
“Also recorded” adds a separate entry of the source.

How the values were obtained:
[1] = target: T1, NanoLuc–SIRT2 fusion protein in HEK293T cells (Homo sapiens, UniProt Q8IXJ6); design: method as in PMID 35441145; settings: read-out: NanoBRET EC50; cited from earlier work
T1 construct: transfected HEK293T cells expressing the NanoLuc-tagged SIRT250-356 fusion protein were used instead of transient; expressed in transfected cells; host or cells: HEK293T (stably transfected)
T1 sequence (Q8IXJ6 50-356 limits assumed): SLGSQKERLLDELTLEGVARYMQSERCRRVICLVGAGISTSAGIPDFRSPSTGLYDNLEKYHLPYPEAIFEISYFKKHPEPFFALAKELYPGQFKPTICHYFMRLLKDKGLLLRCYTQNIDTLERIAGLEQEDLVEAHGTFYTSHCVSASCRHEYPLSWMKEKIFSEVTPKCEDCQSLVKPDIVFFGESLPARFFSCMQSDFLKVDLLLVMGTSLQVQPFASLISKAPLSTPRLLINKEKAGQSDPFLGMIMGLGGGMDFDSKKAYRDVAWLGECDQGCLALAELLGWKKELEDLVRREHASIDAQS

[2] = target: T2, NanoLuc–SIRT2 fusion protein in HEK293T cells (Homo sapiens, UniProt Q8IXJ6); assay: Kinetic NanoBRET washout assay (target residence time); type: cell-based; settings: 25 µM (5 × EC50), 2 h preincubation, 2 h washout
T2 construct: HEK293T cells stably expressing the NanoLuc-SIRT250-364-fusion target protein were seeded into the coated plates; expressed in transfected cells; host or cells: HEK293T (stably expressing)
T2 sequence (Q8IXJ6 50-364 limits assumed): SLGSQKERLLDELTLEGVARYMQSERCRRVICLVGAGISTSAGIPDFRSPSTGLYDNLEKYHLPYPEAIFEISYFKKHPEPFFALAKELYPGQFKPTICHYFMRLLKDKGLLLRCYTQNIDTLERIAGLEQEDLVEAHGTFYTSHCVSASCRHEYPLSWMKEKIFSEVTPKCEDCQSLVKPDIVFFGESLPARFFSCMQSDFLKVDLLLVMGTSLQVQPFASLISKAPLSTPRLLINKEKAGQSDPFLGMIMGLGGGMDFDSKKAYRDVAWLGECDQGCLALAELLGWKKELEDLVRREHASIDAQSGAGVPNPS
Protocol: NanoBRET washout assay for determination of target residence time
A NanoBRET-based washout assay was used to assess the target residence time of inhibitors for SIRT2 in living cells. White, flat-bottom 96-well plates (PerkinElmer) were pre-coated with poly-L-lysine (Sigma-Aldrich) to enhance cell adherence. Briefly, each well was treated with poly-L-lysine solution for 5 min at room temperature, followed by removal of the coating solution and air-drying before seeding.
Cells were treated with the indicated inhibitor
After incubation, the inhibitor-containing medium was aspirated, and a washout procedure was performed to remove unbound inhibitor. Each well was washed twice by sequential addition and removal of 100 µL Opti-MEM (Thermo Fisher Scientific). Following the final wash, 90 µL Opti-MEM was added per well, followed by 100 µL of 2× Nano-Glo® substrate solution (Promega) and 10 µL of 20× SIRT2-Tracer solution.
BRET measurements were recorded kinetically using a Tecan Spark® plate reader equipped with donor (460 nm)
The BRET ratio was monitored over time to track the re-binding of the

For `O=C(NCc1cccnc1)c1ccc2c(c1)C1C3CCC(C3)C1C(c1ccccc1)N2` (centres unmarked) [AEM2, reference compound], the EC50 [1] is given as 5.2 ± 0.2 µM and the inhibition after washout [2] is given as “completely lost activity; also recorded: fades with washout over 2 h”.
